Measured values: patent publication US6960559B1, “Neurite growth regulatory factors” (University of Zurich, priority 1988, dated 2005)
Like-named read-outs stand apart in the source and are kept apart here. Where a SMILES comes first, the peptide text is derived from it. [ ]: non-standard residue; d: D form. The star is where a group is joined. Sta = CC(C)C[C@H](N)[C@@H](O)CC(=O)O; Isovaleryl = CC(C)CC(=O)*; Cbz = O=C(OCc1ccccc1)*

Tests used:
[1] = system: C6 cells; assay: C6 cell spreading on CNS myelin or PLYS with protease inhibitors; format: cell-based, rat; conditions: for Inhibition on CNS (%): spreading on PLYS minus spreading on CNS myelin
Method: Rat C6, mouse NIH 3T3 and B16 cells were cultured in Dulbecco's modified Eagle's medium (DMEM) supplemented with 10% fetal calf serum (FCS), usually to maximally 70-80% confluency. Cells were harvested with a short trypsin treatment (0.1% in Ca^2+/Mg^2+-free Hank's medium for 90 seconds) stopped by addition of FCS in excess, collected by centrifugation. Cells were resuspended in either DMEM/FCS or defined serum-free medium (MEM) and used for experiments. Dissociated rat CNS glial cells were prepared starting from optic nerves of 6-7 days old Lewis rats as described in Section 6.1.1, supra and plated into poly-D-lysine (PLYS) coated wells (100 mm^2, 100 μl medium) at a density of 20,000 cells per well. The culture medium was an enriched L15 medium with 5% rat serum, penicillin and streptomycin. C6, 3T3 and B16 cells were added to 2 day old cultures at a concentration of 30,000 cells per well, incubated for two hours and fixed with warm 4% formalin in phosphate buffer. Inhibitory oligodendrocytes were identified by double labelling using the specific antibodies O1 and O4 (see Section 6.1.3, supra).
Myelin from rat spinal cord (CNS) or sciatic nerve (PNS) purified on a discontinuous sucrose gradient as described in Section 6.1.5., was dried overnight onto PLYS coated wells (20 μg protein/well of 100 mm^2 surface). Unbound membranes were removed by three washes with Ca^2+/Mg^2+-free Hank's solution. Myelin coated wells were immediately used in substrate testing assays by the addition of 9,000 cells (C6, 3T3, or B16) per cm^2. Alternatively, we used extracted CNS myelin protein, or SDS-PAGE purified 35 and 250 kD inhibitory proteins reconstituted in liposomes (see Section 7.1.5, supra). Experiments were scored at different time points using a phase contrast microscope equipped with a photocamera. Quantifications were done using a surface integration program; three arbitrary fields were photographed for each well at a magnitude of 80×, at least 25 cells per picture were measured. Each point represents the mean of at least 3 wells±SEM. Results are expressed as μ^2 of projected cell surface, or as degree, which was calculated by subtracting from the projected surface value of a spreading cell, the surface value of a completely spheric cell.

[2] = system: C6 glioblastoma cells; assay: cells; format: cell-based, rat; conditions: 2 h
Method: Rat C6 glioblastoma cells (Benda et al., 1968, Science 161:370-371) were cultured in Dulbecco's modified Eagle's medium (DMEM) supplemented with 10% fetal calf serum (FCS), usually to maximally 70-80% confluency (Paganetti et al., 1988, J. Cell Biol. 107:2281-2291). All cell culture media were routinely supplemented with penicillin and streptomycin. Cells were harvested by a short trypsin treatment (0.1% in Ca^2+/Mg^2+-free [CMF] PBS/EDTA solution for 90 seconds) followed by addition of DMEM/10% FCS and centrifugation (600×g, 6 min). The cell pellet was rinsed with 5 ml DMEM/10% FCS and centrifuged. For cell spreading assays, cells were resuspended at 10^6/ml in defined serum-free medium (MEMα) supplemented with 0.2 μg/ml insulin, 0.5 μg/ml transferrin and 0.12 μg/ml bovine serum albumin (BSA). Protease blockers or peptides were added directly to the cell suspension from 10×solutions 10 min before plating.
Spinal cord myelin from young adult Lewis rats was purified on a discontinuous sucrose gradient (Colman et al., 1982, J. Cell Biol. 95:598-608; Schwab and Caroni, 1988, J. Neurosci. 8:2381-2393) and stored in 100 mM sucrose, 25 mM TRIS/HCl pH 7.4 at −80° C. up to 6 months. The myelin suspension ([…]) was incubated for 30 min on poly-D-lysine-coated wells (PLYS-wells). Unbound myelin membranes were removed by rinsing twice with CMF-Hank's and once with MEMα. Myelin-coated wells were used immediately for the spreading assay by adding 9'000 C6 cells per cm^2. Experiments were scored as described (Paganetti et al., 1988, J. Cell Biol. 107:2281-2291).

[3] = system: 3T3 cells; assay: Treatment of CNS myelin with C6 plasma membranes, 3T3 spreading and 3H-thymidine incorporation; format: cell-based, mouse; conditions: 3T3 spreading on CNS myelin pretreated with C6 plasma membranes
Method: C6 cells grown to 80% confluency were washed twice with Hank's medium, and harvested in 20 ml 8.5% sucrose, 50 mM NaCl, 10 mM Tris buffer, pH 7.4, using a rubber policeman. After mechanical homogenization through a series of needles of decreasing size, a low purity plasma membrane fraction was obtained by centrifugation (5 minutes at 3000×g, 10 minutes at 8000×g, and then 2 hours at 100,000×g). A higher purity fraction was isolated by loading the material on a discontinuous sucrose gradient, containing 50 mM NaCl, 10 mM Tris, pH 7.4 (Quigley, 1976, J. Cell Biol. 71: 472-486). 20-40% sucrose interphase (C6 plasma membranes fraction) and 40-60% sucrose interphase (C6 mitochondrial fraction) were collected, washed in Hank's medium and resuspended in MEM.
CNS myelin coated PLYS wells were prepared as described in the previous section, but instead of being immediately tested as substrate, they were first incubated with 50 μl of C6 plasma membranes (containing 0.8 mg protein/ml MEM) at 37° for 30 minutes. Dishes were then rinsed twice with Hank's medium and immediately used as substrates for 3T3 cells. In some experiments, protease blockers were added to the membranes using 10 times concentrated solutions.

[4] = system: C6 plasma membrane associated metalloendoprotease; assay: Enzyme assay: cbz-FAF[125I]Y-NH2 degradation by C6 plasma membranes with protease blockers; format: biochemical, rat
Method: For most experiments, 70-80% confluent cell layers (1 cm^2 wells, 100 μl MEMα) or 2-5 μg C6 plasma membrane (100 μl MEMα) were used. […] If indicated, cell layers or plasma membrane suspensions were preincubated for 30 min with protease blockers or peptides. NEM or iodacetamide incubations of plasma membranes were performed at pH 8.5. The incubation was stopped by loading a 10 μl aliquot of the incubation medium on a thin layer chromatography plate (10 cm height, Kieselgel 60 F254, MERCK, Germany) and air dried. […] Plates were then air dried and exposed on Kodak X-OMAT films (NY, USA) with an intensifying screen. To identify the degradation products on thin-layer chromatography, we run reference peptides under the same conditions.
For the quantification of the activity, the reaction was stopped by addition of an equal volume of chloroform. […] Activity is expressed as % radioactivity contained in the aqueous phase. 100% is the sum of the radioactivity of both phases.

[5] = system: C6 cells; assay: C6 cell attachment and spreading on rat cerebellar frozen sections; format: cell-based; conditions: 1,10-phenanthroline 50-300 μM; cbz-tyr-tyr 100 μM
Method: Adult rat cerebellum frozen sections were prepared and dried on glass coverslips. 70,000 C6, 3T3, or B16 cells in 100 μl were added to each well containing slices previously rinsed with cold DMEM/FCS. Cultures were incubated for 2 days at 37° C. Cultures were then fixed and stained with cresyl violet. Three to four cerebellum slices were used per point per experiment, with each experiment being repeated at least 2 times.

[6] = system: C6 cells; assay: C6 cell infiltration into optic nerve explants; format: cell-based, rat; conditions: nerves injected with 3 mM peptide, 0.5 mM in medium; 14 days
Method: Optic nerve and sciatic nerve explants were prepared as described (Schwab and Thoenen, 1985, J. Neurosci. 5:2415-2423). Briefly, the nerves were rapidly dissected from about 8 week old male rats, cleaned from the meninges, 3 times frozen and thawed using liquid nitrogen, and placed under a teflon ring (diameter 13 mm, thickness 1 mm) sealed to a culture dish with silicon grease. Two chambers connected only by the explants were in this way obtained. 300,000 C6, 3T3 or B16 cells were plated in the inner chamber in DMEM/FCS and incubated for 5 to 20 days. The medium was changed every other day. Cultures were fixed overnight with 4% formalin. The nerve explants were mounted with Tissue-Tek, 10 to 15 μm sections were cut in a cryostate and collected on gelatine coated cover slips. After drying at room temperature overnight, the sections were stained in 0.75% cresyl violet, and evaluated. The infiltrated cells were counted for each 0.1 mm of the explants, starting from the tip where cells were added. Due to the 15 day incubation, the explants were often different in diameter. Therefore, only the central part of the nerves (0.25 mm) were considered, since only this part of the explants presented a good histological quality. Inhibition experiments were performed with nerve explants previously injected from both sides with 2 μl of 3 mM cbz-tyr-tyr or cbz-ala-phe solutions.

[7] = C6 cells, 1,10-phenanthroline 0.3 mM, antibody as labelled or none, 150 minutes

Row | Effect on cbz-FAF[^125I]Y-NH2 degradation by C6 plasma membranes, in words [4] | SMILES | Inhibition on CNS (%) ([1]; C6 cells) | Effect on neutralization of CNS myelin inhibitory activity by C6 plasma membranes, in words [3] | C6 cells on white matter of cerebellar frozen sections, in words [5] | also measured
1 | completely blocked the degradation | c1cnc2c(c1)ccc1cccnc12 [1,10-phenanthroline] | 67% | completely blocked the C6 plasma membrane effect | dramatically changed the distribution and behavior of C6 cells on the white matter areas | Effect on C6 cell spreading on control substrates (PLYS, glass, PNS myelin), in words ([1]; 1,10-phenanthroline up to 0.5 mM): did not impair C6 cell spreading; Concentration exerting a general toxic effect on all substrates ([1]; C6 cells, 3 hours): above 0.5 mM; % inhibition on CNS lipos. ([1]; C6 cells, 1,10-phenanthroline 0.3 mM, antibody as labelled or none): 46%; Spreading value on CNS lipos. [1, 7]: 1.35 μm^2 10^3; Spreading value on PLYS [1, 7]: 2.49 μm^2 10^3; IC50 ([1]; Rattus norvegicus, C6, Section 9, read-out: Half maximal inhibition (IC50) of C6 spreading on CNS myelin): 200 µM; Maximal inhibition of C6 cell spreading on CNS myelin ([1]; after 2 hours in culture): up to 67%; IC50 ([2]; Rattus norvegicus, C6 cell spreading on CNS myelin, read-out: IC50 on CNS myelin): 200 µM; IC50 ([2]; Rattus norvegicus, C6 cell spreading on PLYS, read-out: IC50 PLYS): 600 µM; IC50 [4]: 200 µM; Effect on cbz-FAF[^125I]Y-NH2 degradation by C6 plasma membranes, in words ([4]; listed as o-phenanthroline): blocked completely either activities
2 |  | NC(=O)[C@H](Cc1ccccc1)NC(=O)CNC(=O)OCc1ccccc1 [cbz-gly-phe-NH2, carbobenzoxy-glycine-phenylalanine-amide] (Cbz-Gly-Phe-NH2) | 55% | completely blocked the C6 plasma membrane effect |  | 
3 |  | O=C(N[C@@H](Cc1ccc(O)cc1)C(=O)N[C@@H](Cc1ccc(O)cc1)C(=O)O)OCc1ccccc1 [cbz-tyr-tyr, carbobenzoxy-tyrosine-tyrosine] (Cbz-Tyr-Tyr-OH) | 45% |  | dramatically changed the distribution and behavior of C6 cells on the white matter areas | Maximal inhibition of C6 cell spreading on CNS myelin ([1]; 2 h): up to 67%; IC50 [2]: 300 µM; C6 cell infiltration into optic nerve explants, in words [6]: inhibited C6 cell infiltration in all the 8 nerves examined
4 | had no effect | CC(C)CC(=O)N[C@H](C(=O)N[C@H](C(=O)N[C@@H](CC(C)C)[C@@H](O)CC(=O)N[C@@H](C)C(=O)N[C@@H](CC(C)C)[C@@H](O)CC(=O)O)C(C)C)C(C)C [pepstatine] (Isovaleryl-VV[Sta]A[Sta]-OH) | 3% | did not inhibit this effect |  | 

Row | SMILES | Effect on cbz-FAF[^125I]Y-NH2 degradation by C6 plasma membranes, in words [4] | Inhibition on CNS (%) ([1]; C6 cells) | Effect on neutralization of CNS myelin inhibitory activity by C6 plasma membranes, in words [3] | C6 cells on white matter of cerebellar frozen sections, in words [5] | also measured
5 | CC(=O)N[C@@H](CC(C)C)C(=O)N[C@@H](CC(C)C)C(=O)N[C@H](C=O)CCCNC(=N)N [leupeptine] | had no effect | 8% | did not inhibit this effect |  | 
